Series [1] concerns HRV-14. As to the kind of experiment: Antirhinoviral H1-HeLa cell culture assay (XTT cell protection). Format: cell-based, human rhinovirus. The following applies: Rhinovirus B, HRV14, H1-HeLa, HRV-14, H1-HeLa cells. The protocol:
(§1) In this cell protection assay, the ability of compounds to protect cells against HRV infection was measured by the XTT dye reduction method, which is described in Weislow et al., J. Natl. Cancer Inst. (1989), vol. 81, 577-586. H1-HeLa cells were infected with HRV-14 at a multiplicity of infection (m.o.i.) of 0.13 (virus particles/cell) or mock-infected with medium only. Infected or mock-infected cells were resuspended at 8×10^5 cells per ml, and incubated with appropriate concentrations of the compounds to be tested. Two days later, XTT/PMS was added to test plates and the amount of formazan produced was quantified spectrophotometrically at 450/650 nm. The EC50 value was calculated as the concentration of compound that increased the percentage of formazan production in compound-treated, virus-infected cells to 50% of that produced by compound-free, mock-infected cells. The 50% cytotoxic dose (CC50) was calculated as the concentration of compound that decreased the percentage of formazan produced in compound-treated, mock-infected cells to 50% of that produced by compound-free, mock-infected cells. The therapeutic index (TI) was calculated by dividing the CC50 value by the EC50 value.
(§2) All strains of human rhinovirus (HRV) for use in this assay were purchased from American Type Culture Collection (ATCC), except for HRV serotype-14 (produced from the infectious cDNA clone constructed by Dr. Robert Rueckert, Institute for Molecular Virology, University of Wisconsin, Madison, Wis.). HRV stocks were propagated and viral assays were performed in H1-HeLa cells (ATCC). Cells were grown in minimal essential medium with 10% fetal bovine serum, available from Life Technologies (Gaithersburg, Md.).

In series [2] the target is T1, rhinovirus 3C protease, serotype 14 (Human rhinovirus 14, UniProt P03303).
T1 construct: Recombinant rhinovirus 3C proteases; made in house
T1 sequence (P03303 1538-1719): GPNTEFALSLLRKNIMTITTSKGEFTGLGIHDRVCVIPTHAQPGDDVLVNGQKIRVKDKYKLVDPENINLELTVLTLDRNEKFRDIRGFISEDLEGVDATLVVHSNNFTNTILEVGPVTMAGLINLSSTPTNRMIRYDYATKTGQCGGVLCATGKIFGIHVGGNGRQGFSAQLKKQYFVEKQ
As to the kind of experiment: Inhibition of rhinovirus 3C protease (FRET assay, enzyme start). As to conditions: HRV-14 3C protease, progress curves, read-out: Kobs/I. It is filed as biochemical. The procedure: Stock solutions (50 mM, in DMSO) of various compounds were prepared; dilutions were in the same solvent. Recombinant rhinovirus 3C proteases (see Birch et al., “Purification of recombinant human rhinovirus 14 3C protease expressed in Escherichia coli,” Protein Expr. Pur. (1995), vol. 6(5), 609-618) from serotypes 14, 16, and 2 were prepared by the following standard chromatographic procedures: (1) ion exchange using Q Sepharose Fast Flow from Pharmacia; (2) affinity chromatography using Affi-Gel Blue from Biorad; and (3) sizing using Sephadex G-100 from Pharmacia. Each assay sample contained 2% DMSO, 50 mM tris pH 7.6, 1 mM EDTA, a test compound at the indicated concentration, approximately 1 μM substrate, and 50-100 nM protease. The kobs/I values were obtained from reactions initiated by addition of enzyme rather than substrate. RVP activity was measured in the fluorescence resonance energy transfer assay. The substrate was (N-terminal) DABCYL-(Gly-Arg-Ala-Val-Phe-Gln-Gly-Pro-Val-Gly)-EDANS. In the uncleaved peptide, the EDANS fluorescence was quenched by the proximal DABCYL moiety. When the peptide was cleaved, the quenching was relieved, and activity was measured as an increase in fluorescence signal. The tabulated data in the column designated kobs/[I] were measured from progress curves in enzyme start experiments.

A short description of series [3]: Cytotoxicity in mock-infected cells of the antirhinoviral assay (XTT). It is filed as cell-based. The following applies: human, H1-HeLa cells, table line HRV-14. The procedure:
as §1, §2

A word on the EC50: it is the midpoint of the concentration-response curve. A word on the CC50: it is the concentration that lowers cell viability or growth by half.

`CCOC(=O)/C=C/[C@H](CCC(N)=O)NC(=O)[C@H](Cc1ccccc1)NC(=O)c1ccc(-c2cccc3c2OCO3)[nH]1` [Compound 12] showed an EC50 in series [1] of 1.25 µM. Also, the kinact/KI in series [2] stood at 2700 M⁻¹ s⁻¹. The molecule further came in with a CC50 at 2 days in series [3] greater than 10 µM.

`CCOC(=O)/C=C/[C@H](CCC(N)=O)NC(=O)[C@H](Cc1ccccc1)NC(=O)c1ccc(C(C)CC(F)(F)F)[nH]1` (stereo partly drawn) [Compound 13, 6-Carbamoyl-4S-(3-phenyl-2S-{[5-(3,3,3-trifluoro-1 methyl-propyl)-1H-pyrrole-2-carbonyl]-amino}-propionylamino)-hex-2(trans)-enoic acid ethyl ester] yielded an EC50 in series [1] of 2.01 µM. In addition, the kinact/KI in series [2] was 6570 M⁻¹ s⁻¹. Further, in series [3], the CC50 at 2 days is greater than 10 µM.

On to `CCOC(=O)/C=C/[C@H](CCC(N)=O)NC(=O)[C@H](Cc1ccccc1)NC(=O)c1ccc(-c2ccccc2Br)[nH]1` [Compound 14, 4S-(2S-{[5-(2-Bromo-phenyl)-1H-pyrrole-2-carbonyl]-amino}-3-phenyl-propionylamino)-6-carbamoyl-hex-2(trans)-enoic acid ethyl ester], for which the response in series [1] was half-maximal at 0.534 µM (EC50). For the same molecule, in series [2], the kinact/KI was found to be 34600 M⁻¹ s⁻¹. The molecule also showed a CC50 at 2 days in series [3] greater than 10 µM.

`CCOC(=O)/C=C/[C@H](CCC(N)=O)NC(=O)[C@H](Cc1ccccc1)NC(=O)c1ccc(-c2ccncc2)[nH]1` [Compound 15, 6-Carbamoyl-4S-{3-phenyl-2S-[(5-pyridin-4-yl-1H-pyrrole-2-carbonyl)-amino]-propionylamino}-hex-2(trans)-enoic acid ethyl ester]: in series [1], it took 27 µM to reach a half-maximal effect (EC50). In addition, in series [2], the kinact/KI stood at 980 M⁻¹ s⁻¹. Moreover, in series [3], the CC50 at 2 days is greater than 100 µM.

With `C#CC[C@H](NC(=O)c1ccc(-c2ccccc2C(F)(F)F)[nH]1)C(=O)N[C@H](/C=C/C(=O)OCC)CCC(N)=O` [Compound 16, 6-Carbamoyl-4S-(2S-{[5-(2-trifluoromethyl-phenyl)-1H-pyrrole-2-carbonyl]-amino}-pent-4-ynoylamino)-hex-2(trans)-enoic acid ethyl ester], a half-maximal response in series [1] (EC50) required 1.32 µM. The kinact/KI in series [2] stood at 7100 M⁻¹ s⁻¹. Besides, the CC50 at 2 days in series [3] is greater than 10 µM.

The molecule `CCOC(=O)/C=C/[C@H](CCC(N)=O)NC(=O)[C@H](CC(C)C)NC(=O)c1ccc(-c2ccccc2C(F)(F)F)[nH]1` [Compound 17, 6-Carbamoyl-4S-(4-methyl-2S-{[5-(2-trifluoromethyl-phenyl)-1H-pyrrole-2-carbonyl]-amino}-pentanoylamino)-hex-2(trans)-enoic acid ethyl ester] showed an EC50 in series [1] of 2.19 µM. In series [2], the kinact/KI was 2900 M⁻¹ s⁻¹. In series [3], this molecule yielded a CC50 at 2 days greater than 10 µM.

`CCC[C@H](NC(=O)c1ccc(-c2ccccc2C(F)(F)F)[nH]1)C(=O)N[C@H](/C=C/C(=O)OCC)CCC(N)=O` [Compound 18, 6-Carbamoyl-4S-(2S-{[5-(2-trifluoromethyl-phenyl)-1H-pyrrole-2-carbonyl]-amino}-pentanoylamino)-hex-2(trans)-enoic acid ethyl ester]: the EC50 in series [1] was 1.6 µM. Besides, the kinact/KI in series [2] stood at 3140 M⁻¹ s⁻¹. This molecule also returned a CC50 at 2 days in series [3] greater than 10 µM.

`CCCC[C@H](NC(=O)c1ccc(-c2ccccc2C(F)(F)F)[nH]1)C(=O)N[C@H](/C=C/C(=O)OCC)CCC(N)=O` [Compound 19, 6-Carbamoyl-4S-(2S-{[5-(2-trifluoromethyl-phenyl)-1H-pyrrole-2-carbonyl]-amino}-hexanoylamino)-hex-2(trans)-enoic acid ethyl ester] registered an EC50 in series [1] of 1.53 µM. Further, the kinact/KI in series [2] was 6650 M⁻¹ s⁻¹. The CC50 at 2 days in series [3] is greater than 10 µM.

The molecule `CCOC(=O)/C=C/[C@H](CCC(N)=O)NC(=O)CNC(=O)c1ccc(-c2ccccc2C(F)(F)F)[nH]1` [Compound 20, 6-Carbamoyl-4S-(2S-{[5-(2-trifluoromethyl-phenyl)-1H-pyrrole-2-carbonyl]-amino}-acetylamino)-hex-2(trans)-enoic acid ethyl ester] gave an EC50 in series [1] of 16.4 µM. For the same molecule, in series [2], the kinact/KI stood at 330 M⁻¹ s⁻¹. Moreover, the CC50 at 2 days in series [3] was greater than 100 µM.

The molecule `CCOC(=O)/C=C/[C@H](CCC(N)=O)NC(=O)[C@H](Cc1ccccc1)NC(=O)c1ccc(CCC(F)(F)F)[nH]1` [Compound 22, 6-Carbamoyl-4S-(3-phenyl-2S-{[5-(3,3,3-trifluoro-propyl)-1H-pyrrole-2-carbonyl]-amino}-propionylamino)-hex-2(trans)-enoic acid ethyl ester] displayed an EC50 in series [1] of 5.72 µM. Further, the kinact/KI in series [2] came out at 4400 M⁻¹ s⁻¹. In series [3], this molecule came in with a CC50 at 2 days greater than 10 µM.

As for `CCOC(=O)/C=C/[C@H](CCC(N)=O)NC(=O)[C@H](CC)NC(=O)c1ccc(-c2ccccc2C(F)(F)F)[nH]1` [Compound 23, 6-Carbamoyl-4S-(2S-{[5-(2-trifluoromethyl-phenyl)-1H-pyrrole-2-carbonyl]-amino}-butyrlamino)-hex-2(trans)-enoic acid ethyl ester], the EC50 in series [1] turned out to be 1.55 µM. Further, the kinact/KI in series [2] came out at 3800 M⁻¹ s⁻¹. The CC50 at 2 days in series [3] is greater than 10 µM.

`CCOC(=O)/C=C/[C@H](C[C@@H]1CCNC1=O)NC(=O)[C@H](Cc1ccccc1)NC(=O)c1ccc[nH]1` [Compound 24, 5-(2-Oxo-pyrrolidin-3S-yl)-4S-{3-phenyl-2S-[(1H-pyrrole-2-carbonyl)-amino]-propionylamino}-pent-2(trans)-enoic acid ethyl ester] gave an EC50 in series [1] of 3.91 µM. In addition, the kinact/KI in series [2] amounted to 5460 M⁻¹ s⁻¹. In series [3], this molecule came in with a CC50 at 2 days greater than 100 µM.

Molecule `O=C1OCC/C1=C\[C@H](C[C@@H]1CCNC1=O)NC(=O)[C@H](Cc1ccc(F)cc1)NC(=O)c1ccc(-c2cccc3ccccc23)[nH]1` [Compound 26] returned an EC50 in series [1] of 0.073 µM. In addition, the kinact/KI in series [2] was determined as 188000 M⁻¹ s⁻¹. For the same molecule, the half-maximal cytotoxic concentration (CC50) at 2 days in series [3] is greater than 10 µM.

Consider `O=C1OCC/C1=C\[C@H](C[C@@H]1CCNC1=O)NC(=O)[C@H](Cc1ccc(F)cc1)NC(=O)c1ccc(-c2ccccc2)[nH]1` [Compound 27, 5-Phenyl-1H-pyrrole-2-carboxylic acid-{2S-(4-fluorophenyl)-1S-[1-(2-oxo-dihydrofuran-3-ylidinemethyl)-1-(2-oxo-pyrrolidin-3S-methyl)-ethylcarbamoyl]-2S-phenyl-ethyl}-amide], for which the midpoint of the response in series [1], the EC50, lay at 1.58 µM. The kinact/KI in series [2] was 11700 M⁻¹ s⁻¹. In addition, the CC50 at 2 days in series [3] is greater than 10 µM.

With `CCOC(=O)/C=C/[C@H](C[C@@H]1CCNC1=O)NC(=O)[C@@H](CC(=O)c1ccc[nH]1)Cc1ccccc1` [Compound 30], a half-maximal response in series [1] (EC50) required 3.34 µM. In series [2], the kinact/KI worked out at 2500 M⁻¹ s⁻¹. The CC50 at 2 days in series [3] is greater than 10 µM.

On to `O=C1OCC/C1=C\[C@H](C[C@@H]1CCNC1=O)NC(=O)[C@@H](CC(=O)c1ccc(-c2cccc3ccccc23)[nH]1)Cc1ccc(F)cc1` [Compound 33, 2-(R,S)-(4-Fluorobenzyl)-4-(5-naphthalen-1-yl-1H-pyrrol-2-yl)-4-oxo-N-[2-(2-oxo-dihydro-furan-3-ylidine)-1S-(2-oxo-pyrrolidin-3S-ylmethyl)-ethyl]-butyramide], for which the EC50 in series [1] was 0.212 µM. Besides, in series [2], the kinact/KI amounted to 100000 M⁻¹ s⁻¹. Also, the CC50 at 2 days in series [3] was greater than 10 µM.

As for `CCOC(=O)/C=C/[C@H](C[C@@H]1CCNC1=O)NC(=O)[C@@H](CC(=O)c1ccc(-c2ccccc2C(F)(F)F)[nH]1)Cc1ccccc1` [Compound 35, 4S-{2R-Benzyl-4-oxo-4-[5-(2-trifluoromethyl-phenyl)-1H-pyrrol-2-yl]-butyrylamino}-5-(2-oxo-pyrrolidin-3S-yl)-pent-2(trans)-enoic acid ethyl ester], in series [1], the EC50 is 0.143 µM. Also, in series [2], the kinact/KI amounted to 125000 M⁻¹ s⁻¹. The molecule further had a CC50 at 2 days in series [3] greater than 10 µM.

In turn, `CCOC(=O)/C=C/[C@H](C[C@@H]1CCNC1=O)NC(=O)[C@H](CC)CC(=O)c1ccc(-c2ccccc2C(F)(F)F)[nH]1` [Compound 37, 4S-{2R-Ethyl-4-oxo-4-[5-(2-trifluoromethyl-phenyl)-1H-pyrrol-2-yl]-butyrylamino}-5-(2-oxo-pyrrolidin-3S-yl)-pent-2(trans)-enoic acid ethyl ester] showed a half-maximal effective concentration (EC50) in series [1] of 0.266 µM. Also, in series [2], the kinact/KI was 26400 M⁻¹ s⁻¹. In series [3], this molecule returned a CC50 at 2 days greater than 10 µM.

The record behind these values is patent US6872745B2, “Antipicornaviral compounds and compositions, their pharmaceutical uses, and materials for their synthesis” (Agouron Pharmaceuticals, Inc., priority 2000, dated 2005).
